Experimental data from ChEMBL document CHEMBL1201862, “PubChem BioAssay data set” (2004).
Calls of active or inactive are those of the source.

Key:
[1] = tested on: Streptococcus sp. 'group A'; experiment: Streptococcus pyogenes SK(-)GAS viability under kanamycin – luminescence, BacTiterGlo, confirmation, counter-screen for streptokinase expression inhibitor project, dose response (AID 1900); format: functional, organism-based
Streptokinase A = biological target: T1, Streptokinase A (Streptococcus pyogenes serotype M1, UniProt P10520); experiment: viability-normalized secreted streptokinase activity reduction – plasminogen activation absorbance, OD405, dose response (AID 1914); format: functional, Streptococcus pyogenes M1 GAS;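 also: secreted streptokinase activity via plasminogen activation per viability signal from cell pellet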
T1 sequence (P10520 whole entry): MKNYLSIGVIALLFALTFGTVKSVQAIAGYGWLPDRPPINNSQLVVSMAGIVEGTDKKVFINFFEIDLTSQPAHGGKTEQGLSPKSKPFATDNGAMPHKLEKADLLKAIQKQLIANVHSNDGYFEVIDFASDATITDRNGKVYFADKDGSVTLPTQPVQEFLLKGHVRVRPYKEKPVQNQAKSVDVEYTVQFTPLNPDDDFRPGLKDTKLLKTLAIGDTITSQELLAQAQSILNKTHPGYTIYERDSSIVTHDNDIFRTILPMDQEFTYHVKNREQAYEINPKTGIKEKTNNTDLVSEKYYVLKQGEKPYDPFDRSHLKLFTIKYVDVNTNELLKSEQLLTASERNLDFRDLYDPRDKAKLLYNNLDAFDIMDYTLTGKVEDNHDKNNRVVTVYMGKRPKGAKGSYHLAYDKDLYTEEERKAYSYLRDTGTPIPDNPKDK

Streptococcus = experiment: GAS UMAA2166 growth inhibition – luminescence, BacTiterGlo, counter-screen for streptokinase expression inhibitor project, dose response (AID 1915); format: functional, organism-based;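 also: potency for reduction of bacterial viability or growth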
Nonstructural protein 1 = Nonstructural protein 1 (Influenza A virus, UniProt Q194T2); format: functional, Influenza A virus (A/California/07/2009(H1N1))
Nonstructural protein 1, sequence (Q194T2 whole entry): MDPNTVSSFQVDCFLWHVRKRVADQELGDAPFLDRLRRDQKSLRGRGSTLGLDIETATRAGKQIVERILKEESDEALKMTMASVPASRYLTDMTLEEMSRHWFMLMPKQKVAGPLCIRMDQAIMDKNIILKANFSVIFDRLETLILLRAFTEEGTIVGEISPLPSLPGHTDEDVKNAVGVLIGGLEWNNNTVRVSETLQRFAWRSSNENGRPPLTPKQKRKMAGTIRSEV

[2] = biological target: Latent membrane protein 1 (Human herpesvirus 4 (strain B95-8), UniProt P03230); experiment: LMP1 TES1 pathway selectivity over dsRED control – imaging, HEK293T, dual-color eGFP/dsRED, cherry-picks, selectivity assay for LMP1 NF-kB inhibitor project, dose response (AID 588398); format: functional, cell-based
Latent membrane protein 1, sequence (P03230 whole entry): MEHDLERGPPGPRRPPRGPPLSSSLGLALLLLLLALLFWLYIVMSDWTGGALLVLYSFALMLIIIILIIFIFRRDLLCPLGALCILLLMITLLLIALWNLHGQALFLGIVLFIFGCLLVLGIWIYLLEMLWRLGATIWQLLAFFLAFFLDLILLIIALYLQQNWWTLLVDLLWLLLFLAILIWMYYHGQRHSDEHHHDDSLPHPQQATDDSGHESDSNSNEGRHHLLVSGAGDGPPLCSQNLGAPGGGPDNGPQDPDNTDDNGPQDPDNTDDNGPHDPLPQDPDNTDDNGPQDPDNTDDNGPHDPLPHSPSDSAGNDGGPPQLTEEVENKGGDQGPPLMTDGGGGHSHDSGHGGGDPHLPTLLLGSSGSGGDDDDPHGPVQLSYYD

[3] = biological target: Eukaryotic translation initiation factor 4H (Homo sapiens, UniProt Q15056); experiment: eIF4H binding inhibition – biochemical, uHTS, fluorescence polarization, translation initiation inhibitor project, primary screen (AID 2012)
[4] = biological target: Polyadenylate-binding protein 1 (Homo sapiens, UniProt P11940); experiment: blockers of PABP interaction with poly(A) – biochemical, fluorescence polarization, […] (AID 2014)
Polyadenylate-binding protein 1, sequence (P11940 whole entry): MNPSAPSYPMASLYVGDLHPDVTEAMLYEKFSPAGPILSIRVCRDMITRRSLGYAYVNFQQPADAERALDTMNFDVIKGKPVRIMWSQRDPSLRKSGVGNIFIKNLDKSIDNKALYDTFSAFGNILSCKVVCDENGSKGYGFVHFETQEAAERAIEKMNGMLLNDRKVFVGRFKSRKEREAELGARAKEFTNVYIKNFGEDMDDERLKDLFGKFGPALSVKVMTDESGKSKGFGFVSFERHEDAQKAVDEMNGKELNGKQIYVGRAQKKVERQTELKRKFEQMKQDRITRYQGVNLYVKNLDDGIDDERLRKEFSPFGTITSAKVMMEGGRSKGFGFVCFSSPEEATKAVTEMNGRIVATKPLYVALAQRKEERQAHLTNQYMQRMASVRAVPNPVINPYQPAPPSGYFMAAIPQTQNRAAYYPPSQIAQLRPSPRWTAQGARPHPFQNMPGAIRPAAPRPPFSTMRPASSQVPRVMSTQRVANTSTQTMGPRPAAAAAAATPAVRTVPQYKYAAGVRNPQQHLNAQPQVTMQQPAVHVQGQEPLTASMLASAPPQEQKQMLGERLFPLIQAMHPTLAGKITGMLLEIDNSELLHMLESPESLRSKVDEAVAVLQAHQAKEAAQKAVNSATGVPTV

[5] = biological target: T2, Intestinal-type alkaline phosphatase (Mus musculus, UniProt P24822); experiment: PubChem AID 488874; format: functional
T2 sequence (P24822 whole entry): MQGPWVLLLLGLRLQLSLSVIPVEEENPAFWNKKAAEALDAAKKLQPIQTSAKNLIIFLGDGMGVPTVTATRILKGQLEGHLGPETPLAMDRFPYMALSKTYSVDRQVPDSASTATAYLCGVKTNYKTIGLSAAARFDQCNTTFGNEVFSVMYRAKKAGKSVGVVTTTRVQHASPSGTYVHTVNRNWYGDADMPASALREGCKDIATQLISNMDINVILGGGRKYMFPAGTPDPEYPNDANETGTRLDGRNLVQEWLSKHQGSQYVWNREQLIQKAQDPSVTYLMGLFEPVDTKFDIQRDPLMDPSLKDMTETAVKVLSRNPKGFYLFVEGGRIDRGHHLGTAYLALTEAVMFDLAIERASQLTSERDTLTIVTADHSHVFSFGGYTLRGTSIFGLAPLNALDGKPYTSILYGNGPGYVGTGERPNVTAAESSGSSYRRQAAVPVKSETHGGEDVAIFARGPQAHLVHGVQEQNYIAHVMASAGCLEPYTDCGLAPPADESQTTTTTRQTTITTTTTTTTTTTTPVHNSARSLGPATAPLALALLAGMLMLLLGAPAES

[6] = biological target: T3, Intestinal-type alkaline phosphatase (Homo sapiens, UniProt P09923); experiment: human intestinal alkaline phosphatase activators, dose response, biochemical, luminescence, uHTS hits (AID 463120); format: functional
T3 sequence (P09923 whole entry): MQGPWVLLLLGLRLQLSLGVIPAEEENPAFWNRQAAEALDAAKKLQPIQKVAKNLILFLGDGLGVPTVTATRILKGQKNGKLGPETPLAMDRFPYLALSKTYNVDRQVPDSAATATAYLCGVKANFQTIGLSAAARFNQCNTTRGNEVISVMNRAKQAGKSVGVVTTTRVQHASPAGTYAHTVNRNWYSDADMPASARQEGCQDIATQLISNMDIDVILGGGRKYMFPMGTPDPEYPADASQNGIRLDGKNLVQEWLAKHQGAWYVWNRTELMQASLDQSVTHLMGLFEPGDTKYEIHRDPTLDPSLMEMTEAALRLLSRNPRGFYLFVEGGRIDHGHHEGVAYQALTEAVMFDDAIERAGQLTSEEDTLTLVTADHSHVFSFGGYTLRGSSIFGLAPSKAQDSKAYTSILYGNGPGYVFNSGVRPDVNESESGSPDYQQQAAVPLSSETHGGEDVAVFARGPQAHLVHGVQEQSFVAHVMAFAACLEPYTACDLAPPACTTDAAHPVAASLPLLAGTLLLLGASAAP

[7] = biological target: T2, Intestinal-type alkaline phosphatase; experiment: PubChem AID 488785; format: functional
[8] = biological target: T4, Alkaline phosphatase, tissue-nonspecific isozyme (Homo sapiens, UniProt P05186); experiment: TNAP enzyme inhibition by screening hits, dose response, selectivity assay for mouse IAP inhibitor project, biochemical, human TNAP, uHTS hits (AID 488906); format: functional
T4 sequence (P05186 whole entry): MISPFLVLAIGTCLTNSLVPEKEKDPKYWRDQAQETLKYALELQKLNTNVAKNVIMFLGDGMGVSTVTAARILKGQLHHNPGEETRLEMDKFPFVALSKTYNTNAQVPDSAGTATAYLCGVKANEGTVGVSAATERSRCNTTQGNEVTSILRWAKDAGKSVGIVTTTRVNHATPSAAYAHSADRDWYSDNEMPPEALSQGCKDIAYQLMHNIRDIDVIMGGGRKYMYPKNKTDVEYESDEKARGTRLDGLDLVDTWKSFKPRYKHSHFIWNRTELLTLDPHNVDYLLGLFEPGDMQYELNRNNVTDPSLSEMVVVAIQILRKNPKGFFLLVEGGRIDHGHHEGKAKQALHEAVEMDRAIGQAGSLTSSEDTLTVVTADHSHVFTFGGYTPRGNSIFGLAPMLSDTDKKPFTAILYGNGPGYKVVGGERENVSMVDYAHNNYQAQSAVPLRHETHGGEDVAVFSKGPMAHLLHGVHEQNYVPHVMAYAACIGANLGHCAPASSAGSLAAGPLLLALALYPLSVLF

[9] = biological target: T4, Alkaline phosphatase, tissue-nonspecific isozyme; experiment: activation of tissue-nonspecific alkaline phosphatase – biochemical, TNAP isozyme, human IAP uHTS hits, selectivity assay for human IAP activator project, dose response (AID 488886); format: functional;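 also: potency of compounds raising TNAP activity as a selectivity check on IAP activators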
[10] = biological target: T3, Intestinal-type alkaline phosphatase; experiment: inhibition of human intestinal alkaline phosphatase – biochemical, dose response (AID 488876); format: functional

Structure (SMILES)	EC50 [1]	EC50 (Streptokinase A)	EC50 (Streptococcus)	IC50 (Nonstructural protein 1)	AC50 [2]	IC50 [3]	IC50 [4]	IC50 [5]	EC50 [6]	IC50 [7]	IC50 [8]	EC50 [9]	IC50 [10]
Cc1onc(-c2ccccc2)c1C(=O)NC(=S)NNC(=O)c1ccc(O)cc1O	6.86 µM (active)	> 150 µM (not active)	25.3 µM (active)	11.4 µM (active)	1.15 µM (active)	–	–	–	–	–	–	–	–
O=C(N/N=C/c1ccc(O)cc1O)C(=O)N/N=C/c1ccc(O)cc1O	–	–	–	–	–	2.31 µM (active)	> 100 µM (inactive)	5.04 µM (active)	7.62 µM (active)	0.604 µM (active)	38.1 µM (active)	> 100 µM (inactive)	51.3 µM (active)
